# Where “and” joins values, the source holds several entries; their conditions need not be identical. Equal entries are not always repeated.
# Tests used:
# [1] = test system: cord blood-derived CD34+CD90+ cells; assay: Ex vivo expansion culture of cord blood CD34+ cells with chromatin modifying agents, flow cytometry for CD34/CD90; format: cell-based, human
# From the text: Freshly collected human CB was obtained from the New York Blood Center (New York, N.Y.) according to Institutional Review Board guidelines. Low density CB cells (<1.077 g/ml) were obtained by density centrifugation on Ficoll-Paque PLUS (GE Healthcare Bio-Sciences AB, Uppsala, Sweden), from which CD34^+ cells were immunomagnetically isolated by the MACS CD34 progenitor isolation kit (Miltenyi Biotech, Inc., Auburn, Calif.) as described in Araki et al., 2009, Exp Hematol. 37: 1084-1095). The purity of isolated CD34^+ cells routinely ranged from 90-99%.
# CD34^+ cell expansion culture with or without CMA was carried out as described (Araki et al., 2009, Id.; Araki et al. 2006, Exp Hematol. 34: 140-149; Araki et al, 2007, Blood 109: 3570-3578.). All other HDAC inhibitors including 1 mM VPA (Sigma), TSA (5 ng/mL), NA (5 mM) or 5 μM of Suberoylanilide hydroxamic acid (SAHA; BioVision, Inc. Mountain View, Calif.) was added twice at 0 hr and after changing media at 48 hrs of culture. HDAC inhibitors were added only once (48 hr) when used in combination with a DNMT inhibitor as described (Araki et al., 2009, Id.; Araki et al., 2006, Id.; Himburg et al., 2010, Nat. Med. 16: 475-482).
# Flow cytometric analysis was carried out as described (Araki et al., 2009, Id.; Araki et al. 2006, Id.; Araki et al, 2007, Id.). All antibodies were purchased from BD Bioscience (San Jose, Calif.). All analyses were paired with the corresponding matched isotype control and at least 10,000 live cells were acquired for each analysis (CellQuest software, Becton Dickinson).
# In order to compare the effects of various chromatin modifying agents (CMAs) on the degree of expansion of cord blood-derived, primitive subpopulation of CD34^+ cells, valproic acid (VPA), trichostatin A (TSA), nicotinic acid (NA), suberoylanilide hydroxamic acid (SAHA) or 5-aza-2′-deoxycytidine (5azaD) as single agents or in combination was tested in vitro. The results of fluorescence-activated cell sorting experiments performed on cord blood-derived CD34^+/CD90^+ cells treated with CMA agents is shown in FIG. 1A.
# [2] = test system: cobblestone area-forming cells (CAFC); assay: Cobblestone area-forming cell (CAFC) assay, limiting dilution on M2-10B4 stromal cells; format: cell-based, human; details: for CAFC Frequency/10^4 cells: limiting dilution, mean ± SEM of three independent experiments
# Experimental: Colony-forming cell (CFC) were assayed by plating 5×10^2 cells per dish in semisolid media and were counted after 14 days as described (Araki et al., 2009, Id.). The number of cobble stone area-forming cell (CAFC) was quantitated in primary and expanded CD34+ cells by plating in limiting dilution onto irradiated M2-10B4 stromal cells as described (Araki et al., 2009, Id.; Conneally et al., 1997, Proc. Natl. Acad. Sci. USA. 94: 9836-9841; Taswell, 1981, J. Immunol. 126: 1614-1619).
# In order to determine the a correlation between expansion of CD34^+CD90^+ cells and their functional potential as pluripotent hematopoietic stem cells, in vitro functional assays were performed, including assessment of colony-forming cells (CFC), a short-term assay, and cobblestone-area forming cells (CAFC), a long-term assay.
# NOD/SCID mice [3] = assay: In vivo bone marrow homing assay; set-up: species or system mouse; details: expanded CB cells homing to bone marrow; FIG. 2F
# Experimental: In order to assess whether the lower SRC frequency, or lower hematopoietic chimerism, detected following transplantation of VPA expanded cells was due to a defect in the homing of transplanted cells to the host bone marrow, an in vivo homing assay was performed in NOD/SCID mice.
# NOD/SCID mice [4] = assay: Serial (secondary) transplantation of expanded CB cells; format: in vivo, mouse
# [5] = test system: promoter CpG sites (GATA1, S100A8, Cyp11A1); assay: Pyrosequencing of promoter CpG sites of genes in expanded CD34+ cells; format: cell-based, human; details: FIG. 5C
# Experimental: DNA methylation analysis was performed by EpigenDx (Worcester, Mass.) using quantitative pyrosequencing and the PSQ-HS96 system according to standard procedures (Warren et al., 2010, Cell Stem Cell. 7: 618-630). Primers were developed for the CpG sites near the promoter area as detailed in Table 3. Briefly, genomic DNA was isolated from primary or CMA expanded enriched CD34^+ cells using the Blood and Cell Culture DNA kit (Qiagen, Valencia Calif.). Genomic DNA was bisulfite treated by an EZ Methylation Kit (Zymo Research, Irvine, Calif.), and biotinylated gene specific primers or long interspersed nucleotide element 1 (LINE-1) primers were used to amplify regions of interest for analysis as described (Bhatia et al., 1997, J Exp Med. 186: 619-624).
# Genomic DNA was isolated from primary, 5azaD/TSA or VPA expanded CD34^+ cells following culture using the Blood and Cell Culture DNA kit (Qiagen, Valencia Calif.). Genomic DNA was bisulfite treated by an EZ Methylation Kit (Zymo Research, Irvine, Calif.).
# [6] = test system: histone H4 acetylation of gene promoter sites; assay: Chromatin immunoprecipitation (ChIP) assay with anti-acetyl-Histone H4 antibody; format: cell-based, human; details: FIG. 6B
# Experimental: The ChIP assay was carried out using a commercial Assay kit using the manufacturer's protocol (Millipore; Billerica, Mass.) as described (Sankar et al., 2008, Oncogene 27: 5717-5728). Briefly, after 72 hours of culture CD34^+ cells were crosslinked with formaldehyde and the cell pellet was lysed and sonicated to produce genomic fragments and immunoprecipitated using anti-acetyl-Histone H4 antibody (Millipore). Amplified PCR fragments were then analyzed on a 1.2% agarose gel.
# In order to examine whether the alteration of gene expression observed in CD34^+ cells during ex vivo expansion culture with CMA was due to changes in histone acetylation, acetylation of histone H4 was analyzed for several gene promoter sites including HoxB4, Bmi1, GATA2, PU.1, as well as GAPDH as a control. Standard chromatin immunoprecipitation (ChIP) assays were used employing an antibody specific to acetylated histone H4 as described previously (Sankar et al., 2008, Oncogene 27:5717-28). […] More promoter fragments for Bmi1, HoxB4, and GATA2, and less fragments for PU.1 were amplified in 5azaD/TSA expanded CD34^+ cells as compared to control and VPA-expanded CD34^+ cells (FIG. 6B).
smiles,measurement,setting,value
"CCCC(CCC)C(=O)O [VPA, valproic acid]",cells co-expressing CD34+ and CD90+,"[1]; 9 days of culture, cytokines (SCF, Flt3-ligand, TPO, IL-3) plus CMA, FIG. 1A",42.2%
same,fold expansion of CD34+CD90+ cells,"[1]; 9 days of culture, cytokines plus CMA, FIG. 1B",64.6±3.7 fold and 65 fold
same,CD34+CD90+ (%),[1]; mean ± SEM of three independent experiments,42.17 ± 13.45 %
same,fold expansion of long term (5 weeks) CAFC,[2]; FIG. 2B,8.4±1.6 fold
same,CAFC Frequency/10^4 cells,[2],14.67±0.74 /10^4 cells
same,CAFC Frequency/10^4 cells,[2]; listed as VPA Alone,14.67 ± 0.74 /10^4 cells
same,homing efficiency,NOD/SCID mice [3],1.68%
same,Secondary mouse BM chimerism (% human),"NOD/SCID mice [4]; 10-30 × 10^6 unseparated BM cells from primary mouse, sacrificed 7 weeks later, individual mice",Not Detectable
same,Primary mouse BM chimerism (% human),"NOD/SCID mice [4]; progeny of 1 × 10^4 primary CB cells treated ex vivo for 9 days, individual mice",0.60 % human and 1.0 % human (2×) and 0.30 % human and 5.6 % human
same,secondary hosts engrafted,NOD/SCID mice [4]; serial transplantation from primary recipients,none of the 5
same,methylation levels of S100A8 and Cyp11A1 gene promoter sites,[5],almost completely lacked any changes in methylation
same,methylation of the GATA1 gene promoter,[5],minimal demethylation
same,"histone H4 acetylation of the promoter regions of HoxB4, Bmi1 and GATA2 genes in contrast to control cultures",[6]; CD34+ cells after 72 hours of culture,Increased histone H4 acetylation
same,levels of histone H4 acetylation for Bmi1 and HoxB4 genes compared to control cultures,[6],intermediate levels

# From patent US20130136722A1, “Methods of Ex Vivo Expansion of Blood Progenitor Cells, and Generation of Composite Grafts” (The Board of Trustees of The University of Illinois, priority 2011, published 2013)
